From patent US20250326748A1, “COMPOUNDS AND METHODS FOR MODULATING SPLICING” (REMIX THERAPEUTICS INC., priority 2022, published 2025)
Like-named read-outs stand apart in the source and are kept apart here.

Columns and labels:
Format in all cases: cell-based, human
Target C mRNA = experiment: Splicing RT-qPCR panel, Target C canonical junction (CJ) mRNA; settings: Homo sapiens, read-out: Target C CJ (decrease in CJ mRNA levels, IC50)
Procedure, shortened: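 A673 cells (DMEM, 10% FBS) or K562 cells (IMDM, 10% FBS) treated 24 h at 37 °C with an 11-point 3-fold dilution, top 10 uM, DMSO ≤0.25%. Canonical-junction mRNA quantified in lysates by RT-qPCR, normalised to GAPDH, GUSB or PPIA and to DMSO (2^−ΔΔCt), then converted to % response.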

MYB mRNA = experiment: Splicing RT-qPCR assay, MYB canonical (CJ) and alternative (AJ) junction mRNA; settings: Homo sapiens; for IC50: canonical junction mRNA; for AC50: alternative junction mRNA, read-out: MYB AJ (AC50, increase in AJ mRNA)
Procedure, shortened: (§1)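 Treatment of A673 or K562 cultures with compounds (eleven-point titration, highest final 10 uM, ≤0.25% DMSO) ran one day at 37 °C. Afterwards cells were lysed directly in the well, and cDNA synthesis coupled with qPCR measured CJ and AJ isoform levels against a reference transcript.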

HTT mRNA = experiment: Splicing RT-qPCR assay, HTT canonical (CJ) and alternative (AJ) junction mRNA; settings: Homo sapiens; for IC50: canonical junction mRNA; for AC50: alternative junction mRNA, read-out: HTT AJ (AC50, increase in AJ mRNA)
Procedure, shortened: as §1

[1] = qPCR panel, read-out: MYB CJ (decrease in CJ mRNA levels, IC50)
[2] = RT-qPCR, A673 or K562 cells, 24 hours treatment
[3] = RT-qPCR, A673 or K562 cells, 24 hours treatment, read-out: MYB CJ (IC50, decrease in CJ mRNA)
[4] = 24 h, RT-qPCR, A673 or K562 cells, 24 hours treatment, read-out: HTT CJ (IC50, decrease in CJ mRNA)
[5] = qPCR panel, read-out: HTT CJ (decrease in CJ mRNA levels, IC50)

Row | Structure (SMILES) | IC50 (Target C mRNA) | IC50 (MYB mRNA; [1]) | AC50 (MYB mRNA; [2]) | IC50 (MYB mRNA; [3]) | IC50 (HTT mRNA; [4]) | IC50 (HTT mRNA; [5]) | AC50 (HTT mRNA; [2])
1 | Cc1c(O)c(-c2cc(Cl)c3cc(N4CCNC5(CC5)C4)cnc3n2)cc2cn(C)nc12 [Compound 381] | 1000 to 10000 nM | < 100 nM | < 100 nM | < 100 nM | 100 to 1000 nM | 100 to 1000 nM | 100 to 1000 nM
2 | CN1CCC[C@H]2CN(c3cnc4nc(-c5cc6cn(C)nc6c(F)c5O)cc(Cl)c4c3)C[C@H]21 [Compound 304] | > 10000 nM | 100 to 1000 nM | 100 to 1000 nM | 100 to 1000 nM | 1000 to 10000 nM | 1000 to 10000 nM | 1000 to 10000 nM
3 | CN[C@H]1CCN(c2cnc3nc(-c4cc(C)c5nc(C)cn5n4)ccc3c2)C1 [Compound 116] | 100 to 1000 nM | < 100 nM | < 100 nM | < 100 nM | < 100 nM | < 100 nM | < 100 nM
4 | Cc1c(O)c(-c2ccc3cc(N4CCC(NCC5CC5)C4)cnc3n2)cc2cn(C)nc12 (centres unmarked) [Compound 105, 5-(6-{3-[(cyclopropylmethyl)amino]pyrrolidin-1-yl}-1,8-naphthyridin-2-yl)-2,7-dimethylindazol-6-ol] | 1000 to 10000 nM | < 100 nM | < 100 nM | < 100 nM | 100 to 1000 nM | 100 to 1000 nM | 100 to 1000 nM
5 | Cn1cc2cc(-c3cnc4nc(N5CCC(NC(C)(C)C)C5)ccc4c3)c(O)cc2n1 (centres unmarked) [Compound 133, 5-{7-[3-(tert-butylamino)pyrrolidin-1-yl]-1,8-naphthyridin-3-yl}-2-methylindazol-6-ol] | > 10000 nM | > 10000 nM | > 10000 nM | > 10000 nM | 1000 to 10000 nM | 1000 to 10000 nM | > 10000 nM
6 | CCN[C@@H]1CCN(c2cnc3nc(-c4cc5cn(C)nc5cc4O)cc(Cl)c3c2)C1 [Compound 317] | < 100 nM | < 100 nM | < 100 nM | < 100 nM | < 100 nM | < 100 nM | < 100 nM
7 | C[C@@H]1CN(c2cnc3nc(-c4cc5cn(C)nc5cc4O)ccc3c2)C[C@H](C)N1 [Compound 343] | 1000 to 10000 nM | 100 to 1000 nM | 100 to 1000 nM | 100 to 1000 nM | 100 to 1000 nM | 1000 to 10000 nM | 1000 to 10000 nM
8 | CN(c1cnc2nc(-c3cc4cn(C)nc4c(F)c3O)cc(Cl)c2c1)[C@@H]1CCNC1 [Compound 276] | 1000 to 10000 nM | < 100 nM | < 100 nM | < 100 nM | 100 to 1000 nM | 100 to 1000 nM | 100 to 1000 nM
9 | Cc1cn2nc(-c3cc(Cl)c4cc(N5C[C@@H](C)N[C@@H](C)C5)cnc4n3)cc(C)c2n1 [Compound 335, 4-chloro-2-{2,8-dimethylimidazo[1,2-b]478pyridazine-6-yl}-6-[(3R,5S)-3,5-dimethylpiperazin-1-yl]-1,8-naphthyridine] | 1000 to 10000 nM | 100 to 1000 nM | 100 to 1000 nM | 100 to 1000 nM | 100 to 1000 nM | 100 to 1000 nM | 1000 to 10000 nM
10 | C[C@H]1CN(c2cnc3nc(-c4cc(F)c5nn(C)cc5c4)cc(Cl)c3c2)C[C@@H](C2CC2)N1 [Compound 288] | 1000 to 10000 nM | 100 to 1000 nM | 100 to 1000 nM | 100 to 1000 nM | 1000 to 10000 nM | 1000 to 10000 nM | 1000 to 10000 nM
11 | Cc1cn2cc(-c3cc(Cl)c4cc(N5CCNCC5)cnc4n3)cc(F)c2n1 [Compound 153, 4-chloro-2-{8-fluoro-2-methylimidazo[1,2-a]pyridin-6-yl}-6-(piperazin-1-yl)-1,8-naphthyridine] | 1000 to 10000 nM | 100 to 1000 nM | < 100 nM | 100 to 1000 nM | 100 to 1000 nM | 100 to 1000 nM | 1000 to 10000 nM
12 | CNC1CCN(c2cnc3nc(-c4cc5cn(C)nc5c(C)c4O)ncc3c2)C1 (centres unmarked) [Compound 104, 2,7-dimethyl-5-{6-[3-(methylamino)pyrrolidin-1-yl]pyrido[2,3-d]pyrimidin-2-yl}indazol-6-ol] | – | < 100 nM | < 100 nM | < 100 nM | 100 to 1000 nM | 100 to 1000 nM | 100 to 1000 nM
